Like-named read-outs stand apart in the source and are kept apart here.

Among the data in patent US20100267697A1, “ION CHANNEL MODULATORS” (Wyeth, priority 2006, published 2010) are IC50 values, retold here.

This test deals with T1, Cav2.2 (Homo sapiens, UniProt Q00975).
T1 construct: expressed in transfected cells; host or cells: HEK-293T/17 (transient, FuGENE 6)
The experiment in a line: HEK assay (whole-cell patch clamp, transiently transfected HEK-293T/17 cells, pulses P1 and P5). It counts as cell-based. The following applies: holding potential −100 mV. The method, then:
HEK-293T/17 cells were transiently transfected in a similar manner as described in FuGENE 6 Package Insert Version 7, April 2002, Roche Applied Science, Indianapolis, Ind. The cells were plated at 2.5×10^5 cells in 2 mL in a 6-well plate, incubated for one night, and achieved a ˜30-40% confluence. In a small sterile tube, sufficient serum-free medium was added as diluent for FuGENE Transfection Reagent (Roche Applied Science, Indianapolis, Ind.) to a total volume of 100 μL. To this medium was added 3 μL of FuGENE 6 Reagent. The mixture was tapped gently to mix. To the prediluted FuGENE 6 Reagent was added 2 μg of DNA solution (0.8-2.0 μg/μL). The DNA/Fugene 6 mixture was gently pipeted to mix the contents and incubated for about 15 minutes at room temperature. The complex mixture was then added to the HEK-293T/17 cells, distributed around the well, and swirled to ensure even dispersal. The cells were returned to the incubator for 24 hours. The transfected cells were then replated at density 2.5×10^5 in a 35 mm dish with 5 glass coverslips and grew in low serum (1%) media for 24 hours. Coverslips with isolated cells were then transferred into a chamber, and calcium channel (e.g., L-type, N-type, etc.) current or other currents for counter screening were recorded from the transiently transfected HEK-293T/17 cells.
The whole-cell voltage clamp configuration of the patch clamp technique was employed to evaluate voltage-dependent calcium currents essentially as described by Thompson and Wong (1991), J. Physiol., 439: 671-689, the entire disclosure of which is herein incorporated by reference. To record calcium channel (e.g., L-type, N-type, etc.) currents for evaluation of inhibitory potency of compounds (steady-state concentration-response analysis), five pulses of 20-30 ms voltage steps to about +10 mV (the peak of the current voltage relationship) were delivered at five Hz every 30 second from a holding potential at −100 mV. In order to obtain an estimate of the degree of use-dependent block of the test compounds, IC50 values were determined at the first and fifth pulse of the train (P1 and P5, respectively, in Table 2). Compound evaluations were carried out essentially as described by Sah D. W. and Bean B. P. (1994), Mol. Pharmacol., 45:84-92, the entire disclosure of which is herein incorporated by reference.

The mark [1] stands for this setting: fifth pulse (P5) of 5 Hz train, read-out: HEK Cav2.2 P5 IC50.
[2] abbreviates: first pulse (P1) of 5 Hz train, read-out: HEK Cav2.2 P1 IC50.

T1 sequence (Q00975 whole entry): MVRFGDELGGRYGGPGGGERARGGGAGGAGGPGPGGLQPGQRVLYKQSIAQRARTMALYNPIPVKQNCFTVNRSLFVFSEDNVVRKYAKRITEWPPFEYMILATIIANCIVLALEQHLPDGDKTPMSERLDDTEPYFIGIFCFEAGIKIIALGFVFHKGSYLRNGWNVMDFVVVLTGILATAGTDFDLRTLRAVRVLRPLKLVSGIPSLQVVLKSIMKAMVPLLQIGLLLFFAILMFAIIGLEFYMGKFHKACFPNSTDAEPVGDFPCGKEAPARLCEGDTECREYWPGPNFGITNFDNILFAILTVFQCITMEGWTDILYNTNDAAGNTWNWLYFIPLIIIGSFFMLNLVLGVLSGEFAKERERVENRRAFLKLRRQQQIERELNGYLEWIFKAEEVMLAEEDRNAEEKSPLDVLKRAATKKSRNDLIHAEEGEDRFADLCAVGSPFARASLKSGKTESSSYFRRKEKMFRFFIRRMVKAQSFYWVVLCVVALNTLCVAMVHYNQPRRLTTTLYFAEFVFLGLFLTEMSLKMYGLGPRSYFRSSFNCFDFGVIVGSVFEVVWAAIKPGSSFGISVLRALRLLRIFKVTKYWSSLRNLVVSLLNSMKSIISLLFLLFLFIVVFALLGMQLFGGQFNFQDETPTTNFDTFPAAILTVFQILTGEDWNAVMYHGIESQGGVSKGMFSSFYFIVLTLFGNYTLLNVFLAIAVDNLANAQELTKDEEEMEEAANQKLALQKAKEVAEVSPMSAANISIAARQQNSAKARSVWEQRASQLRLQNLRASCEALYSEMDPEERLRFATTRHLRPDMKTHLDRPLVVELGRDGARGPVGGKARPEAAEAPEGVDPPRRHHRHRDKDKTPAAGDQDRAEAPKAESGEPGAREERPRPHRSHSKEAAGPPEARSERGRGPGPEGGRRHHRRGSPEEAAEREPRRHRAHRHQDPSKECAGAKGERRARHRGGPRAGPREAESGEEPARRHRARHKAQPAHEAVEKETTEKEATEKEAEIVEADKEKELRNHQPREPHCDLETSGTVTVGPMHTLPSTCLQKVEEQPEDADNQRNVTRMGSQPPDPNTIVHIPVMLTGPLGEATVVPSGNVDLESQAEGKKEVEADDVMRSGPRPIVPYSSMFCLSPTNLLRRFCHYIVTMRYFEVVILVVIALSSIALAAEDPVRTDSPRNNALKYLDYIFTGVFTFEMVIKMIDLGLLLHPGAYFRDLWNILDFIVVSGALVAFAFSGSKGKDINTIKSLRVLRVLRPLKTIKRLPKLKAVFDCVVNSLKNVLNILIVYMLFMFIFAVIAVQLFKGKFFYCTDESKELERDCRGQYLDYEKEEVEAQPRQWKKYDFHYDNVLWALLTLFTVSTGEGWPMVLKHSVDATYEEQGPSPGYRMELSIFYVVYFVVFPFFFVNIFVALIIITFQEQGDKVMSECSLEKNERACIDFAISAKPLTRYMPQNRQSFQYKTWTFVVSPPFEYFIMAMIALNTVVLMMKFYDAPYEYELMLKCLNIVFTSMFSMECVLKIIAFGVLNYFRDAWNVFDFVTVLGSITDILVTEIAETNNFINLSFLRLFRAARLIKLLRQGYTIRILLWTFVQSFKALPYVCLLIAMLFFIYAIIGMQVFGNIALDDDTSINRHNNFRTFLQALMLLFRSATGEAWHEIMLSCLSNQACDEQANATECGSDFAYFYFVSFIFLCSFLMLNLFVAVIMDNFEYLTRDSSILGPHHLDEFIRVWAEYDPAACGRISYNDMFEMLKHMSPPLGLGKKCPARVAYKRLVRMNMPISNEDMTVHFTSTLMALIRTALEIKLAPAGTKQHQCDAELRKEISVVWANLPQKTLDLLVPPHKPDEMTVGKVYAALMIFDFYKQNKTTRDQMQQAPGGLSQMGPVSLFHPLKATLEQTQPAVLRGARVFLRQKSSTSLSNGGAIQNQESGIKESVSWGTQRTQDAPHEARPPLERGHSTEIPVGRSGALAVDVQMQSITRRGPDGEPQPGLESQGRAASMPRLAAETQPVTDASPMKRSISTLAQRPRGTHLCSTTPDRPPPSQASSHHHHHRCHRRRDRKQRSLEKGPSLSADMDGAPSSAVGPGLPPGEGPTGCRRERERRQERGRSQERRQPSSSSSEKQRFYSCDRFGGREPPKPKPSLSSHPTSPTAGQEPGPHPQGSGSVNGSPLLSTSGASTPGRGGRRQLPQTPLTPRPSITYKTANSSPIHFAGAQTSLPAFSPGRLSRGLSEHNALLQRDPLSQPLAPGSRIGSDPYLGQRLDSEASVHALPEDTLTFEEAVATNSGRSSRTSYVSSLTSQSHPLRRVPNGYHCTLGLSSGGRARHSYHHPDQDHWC
T1 sequence (P54284 whole entry partner): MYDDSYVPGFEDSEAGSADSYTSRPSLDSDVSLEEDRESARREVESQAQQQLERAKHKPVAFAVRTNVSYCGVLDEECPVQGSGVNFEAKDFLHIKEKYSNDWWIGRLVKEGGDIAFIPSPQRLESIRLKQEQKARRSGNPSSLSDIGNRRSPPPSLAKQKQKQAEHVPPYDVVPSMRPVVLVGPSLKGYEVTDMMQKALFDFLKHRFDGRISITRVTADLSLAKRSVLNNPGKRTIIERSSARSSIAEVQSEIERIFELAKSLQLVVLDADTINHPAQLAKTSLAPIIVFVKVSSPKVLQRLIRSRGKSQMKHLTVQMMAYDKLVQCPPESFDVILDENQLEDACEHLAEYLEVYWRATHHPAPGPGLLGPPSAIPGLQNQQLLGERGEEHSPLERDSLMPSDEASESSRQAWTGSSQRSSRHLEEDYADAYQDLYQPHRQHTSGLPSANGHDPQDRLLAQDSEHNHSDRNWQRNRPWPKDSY
T1 sequence (P54289 25-946 partner limits assumed): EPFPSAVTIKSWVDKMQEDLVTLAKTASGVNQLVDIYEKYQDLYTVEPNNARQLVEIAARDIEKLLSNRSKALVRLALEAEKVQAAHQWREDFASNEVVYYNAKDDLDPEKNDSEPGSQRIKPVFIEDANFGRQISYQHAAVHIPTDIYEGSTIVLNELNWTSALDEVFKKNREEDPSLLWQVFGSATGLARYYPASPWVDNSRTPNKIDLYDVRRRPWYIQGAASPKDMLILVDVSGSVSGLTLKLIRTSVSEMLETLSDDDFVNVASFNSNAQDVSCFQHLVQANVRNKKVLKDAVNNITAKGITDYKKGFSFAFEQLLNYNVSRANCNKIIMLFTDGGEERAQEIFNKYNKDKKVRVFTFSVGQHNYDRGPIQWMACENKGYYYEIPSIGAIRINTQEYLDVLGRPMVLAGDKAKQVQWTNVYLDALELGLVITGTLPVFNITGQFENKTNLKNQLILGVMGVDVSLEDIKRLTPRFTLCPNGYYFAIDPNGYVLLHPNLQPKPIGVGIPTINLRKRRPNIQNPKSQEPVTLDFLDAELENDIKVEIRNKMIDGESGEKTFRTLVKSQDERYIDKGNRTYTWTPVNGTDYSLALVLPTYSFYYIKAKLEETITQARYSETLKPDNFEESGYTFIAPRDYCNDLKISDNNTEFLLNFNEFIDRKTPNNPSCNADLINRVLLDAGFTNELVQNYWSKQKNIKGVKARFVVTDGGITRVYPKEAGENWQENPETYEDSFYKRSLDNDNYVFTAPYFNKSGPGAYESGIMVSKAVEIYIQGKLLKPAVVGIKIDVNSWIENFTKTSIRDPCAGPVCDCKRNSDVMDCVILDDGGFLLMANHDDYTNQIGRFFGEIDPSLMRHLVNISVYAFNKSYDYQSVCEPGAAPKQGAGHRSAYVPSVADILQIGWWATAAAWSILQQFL
T1 sequence (P54289 947-1103 partner limits assumed): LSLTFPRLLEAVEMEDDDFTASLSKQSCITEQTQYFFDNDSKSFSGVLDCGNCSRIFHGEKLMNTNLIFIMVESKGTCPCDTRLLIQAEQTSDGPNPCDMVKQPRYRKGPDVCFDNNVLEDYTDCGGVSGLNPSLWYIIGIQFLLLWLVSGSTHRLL

By IC50 is commonly meant the midpoint of a concentration-inhibition curve. `CC(C)(C)C(=O)N(Cc1ccc(N2CCC(c3nc4ccccc4[nH]3)CC2)nc1)c1ccc(F)cc1` [Compound 53, N-[4-(1H-Benzoimidazol-2-yl)-3,4,5,6-tetrahydro-2H-[1,2′]bipyridinyl-5′-ylmethyl]-N-(4-fluorophenyl)-2,2-dimethyl-propionamide]: the IC50 is 0.3 µM under setting [1] and 0.6 µM under setting [2].
The matching figures for `CCN(CC)c1ccc(CN(C(=O)C(C)(C)n2cc(CN(C)C)nn2)c2ccc(F)cc2)cn1` [Compound 54, N-(6-Diethylamino-pyridin-3-ylmethyl)-2-(4-dimethylaminomethyl-[1,2,3]triazol-1-yl)-N-(4-fluorophenyl)-isobutyramide]: 5.3 µM and 8.9 µM.
Consider `CC(C)(C)C(=O)N(Cc1ccc(N2CC[C@@H](Oc3ccccn3)C2)nc1)c1ccc(F)cc1` [Compound 55, N-(4-Fluorophenyl)-2,2-dimethyl-N-{6-[3-(pyridin-2-yloxy)-pyrroldiin-1-yl]-pyridin-3-ylmethyl}-propionamide], for which the half-inhibitory concentration (IC50) under setting [1] amounted to 0.6 µM and the IC50 under setting [2] is 1.7 µM.
For `CNC1CCN(c2ccc(CN(C(=O)C(C)(C)C)c3ccc(F)cc3)cn2)C1` (stereo not shown) [Compound 56, N-(4-Fluorophenyl)-2,2-dimethyl-N-[6-(3-methylamino-pyrrolidin-1-yl)-pyridin-3-ylmethyl]-propionamide], the IC50 was found to be 2.8 µM under setting [1] and 6 µM under setting [2].
`CCN(CCc1cccnc1)c1ccc(CN(C(=O)C(C)(C)C)c2ccc(F)cc2)cn1` [Compound 58, N-{6-[Ethyl-(2-pyridin-3-yl-ethyl)-amino]-pyridin-3-ylmethyl}-N-(4-fluorophenyl)-2,2-dimethyl-propionamide]: the IC50 reads like this: under setting [1], 0.9 µM; under setting [2], 4.9 µM.
The matching figures for `CC(C)(C)C(=O)N(Cc1ccc(NCCc2cccnc2)nc1)c1ccc(F)cc1` [Compound 59, N-(4-Fluorophenyl)-2,2-dimethyl-N-[6-(2-pyridin-3-yl-ethylamino)-pyridin-3-ylmethyl]-propionamide]: 3.8 µM and 29.1 µM.
For `CCN(CC)c1ccc(CN(C(=O)C(C)(C)n2cc(Cc3ccccc3)nn2)c2ccc(F)cc2)cn1` [Compound 63, 2-(4-Benzyl-[1,2,3]triazol-1-yl)-N-(6-diethylamino-pyridin-3-ylmethyl)-N-(4-fluorophenyl)-isobutyramide], in that order: 0.7 µM and 2.7 µM.
For `CN(c1ccccc1)c1nc(CN(C(=O)C(C)(C)C)c2ccc(F)cc2)cs1` [Compound 65, N-(4-Fluorophenyl)-2,2-dimethyl-N-[2-(methyl-phenyl-amino)-thiazol-4-ylmethyl]-propionamide], in that order: 0.6 µM and 1.8 µM.
On to `CN(Cc1ccco1)c1ccc(CN(C(=O)C(C)(C)C)c2ccc(F)cc2)cn1` [Compound 66, N-(4-Fluorophenyl)-N-[6-(furan-2-ylmethyl-methyl-amino)-pyridin-3-ylmethyl]-2,2-dimethyl-propionamide], for which the IC50 came to 1.1 µM under setting [1] and 3.5 µM under setting [2].
For `CC(C)(C)Nc1ccc(CN(C(=O)C(C)(C)C)c2ccc(F)cc2)cn1` [Compound 67, N-(6-tert-Butylamino-pyridin-3-ylmethyl)-N-(4-fluorophenyl)-2,2-dimethyl-propionamide], in that order: 3.7 µM and 9.3 µM.
The matching figures for `COc1ccc(OCc2nc(CN(C(=O)C(C)(C)C)c3ccc(F)cc3)cs2)cc1` [Compound 68, N-(4-Fluorophenyl)-N-[2-(4-methoxy-phenoxymethyl)-thiazol-4-ylmethyl]-2,2-dimethyl-propionamide]: 1.2 µM and 3.2 µM.
For `CC(C)c1cccc(N(Cc2csc(N3CCCCC3)n2)C(=O)C(C)(C)C)c1` [Compound 71, N-(3-Isopropyl-phenyl)-2,2-dimethyl-N-(2-piperidin-1-yl-thiazol-4-ylmethyl)-propionamide], in that order: 0.5 µM and 2.4 µM.
Consider `CCC(C)(C)C(=O)N(Cc1csc(N2CCOCC2)n1)c1ccc(F)cc1` [Compound 73, N-(4-Fluorophenyl)-2,2-dimethyl-N-(2-morpholin-4-yl-thiazol-4-ylmethyl)-butyramide], for which the IC50 under setting [1] is 8.5 µM and the IC50 under setting [2] was 33.8 µM.
For `CN(c1ccc(CN(C(=O)C(C)(C)C)c2ccc(F)cc2)cn1)C1CC1` [Compound 74, N-[6-(Cyclopropyl-methyl-amino)-pyridin-3-ylmethyl]-N-(4-fluorophenyl)-2,2-dimethyl-propionamide], in that order: 2.8 µM and 12.8 µM.
For `CC(C)(C)C(=O)N(Cc1csc(-c2ccncc2)n1)c1ccc(F)cc1` [Compound 75, N-(4-Fluorophenyl)-2,2-dimethyl-N-(2-pyridin-4-yl-thiazol-4-ylmethyl)-propionamide], in that order: 11 µM and 47.3 µM.
The matching figures for `CN1CCN(c2ncc(CN(C(=O)C(C)(C)C)c3ccc(F)cc3)s2)CC1` [Compound 76, N-(4-Fluorophenyl)-2,2-dimethyl-N-[2-(4-methyl-piperazin-1-yl)-thiazol-5-ylmethyl]-propionamide]: 5.2 µM and 29 µM.
As for `CC(C)(C)C(=O)N(Cc1csc(N2CCCC2)n1)c1ccc(F)cc1` [Compound 77, N-(4-Fluorophenyl)-2,2-dimethyl-N-(2-pyrrolidin-1-yl-thiazol-4-ylmethyl)-propionamide], the IC50 reads like this: under setting [1], 2.6 µM; under setting [2], 19.1 µM.
For `CC(C)(C)C(=O)N(Cc1ccc(NC2CC2)nc1)c1ccc(F)cc1` [Compound 78, N-(6-Cyclopropylamino-pyridin-3-ylmethyl)-N-(4-fluorophenyl)-2,2-dimethyl-propionamide], in that order: 7.2 µM and 14.2 µM.
For `CN(c1ccc(F)cc1)c1nc(CN(C(=O)C(C)(C)C)c2ccc(F)cc2)cs1` [Compound 79, N-(4-Fluorophenyl)-N-{2-[(4-fluorophenyl)-methyl-amino]-thiazol-4-ylmethyl}-2,2-dimethyl-propionamide], in that order: 0.1 µM and 0.3 µM.
The matching figures for `COc1ccc(N(C)c2nc(CN(C(=O)C(C)(C)C)c3ccc(F)cc3)cs2)cc1` [Compound 80, N-(4-Fluorophenyl)-N-{2-[(4-methoxy-phenyl)-methyl-amino]-thiazol-4-ylmethyl}-2,2-dimethyl-propionamide]: 0.6 µM and 2.4 µM.
Turning to `CN(c1ccc(F)cc1)c1nc(CN(C(=O)C(C)(C)C)c2ccc(F)cn2)cs1` [Compound 82, N-{2-[(4-Fluorophenyl)-methyl-amino]-thiazol-4-ylmethyl}-N-(5-fluoro-pyridin-2-yl)-2,2-dimethyl-propionamide], the half-maximal inhibitory concentration (IC50) by setting is: under setting [1], 2.2 µM; under setting [2], 12.1 µM.
For `CN(C)c1ccc(N(Cc2csc(N3CCCCC3)n2)C(=O)C(C)(C)C)cc1` [Compound 86, N-(4-Dimethylamino-phenyl)-2,2-dimethyl-N-(2-piperidin-1-yl-thiazol-4-ylmethyl)-propionamide], in that order: 3.1 µM and 12.6 µM.
The matching figures for `CCN(c1ccc(CN(C(=O)C(C)(C)C)c2ccc(F)cc2)cc1)C1CC1` [Compound 87, N-[4-(Cyclopropyl(ethyl)amino)-benzyl]-N-(4-fluorophenyl)-2,2-dimethyl-propionamide]: 1.4 µM and 4.2 µM.
The matching figures for `CCN(CC)c1ccc(N(Cc2csc(N(C)c3ccc(F)cc3)n2)C(=O)C(C)(C)C)cc1` [Compound 88, N-(4-Diethylamino-phenyl)-N-{2-[(4-fluorophenyl)-methyl-amino]-thiazol-4-ylmethyl}-2,2-dimethyl-propionamide]: 0.1 µM and 0.4 µM.
`CN(C)c1ccc(N(Cc2csc(N(C)c3ccc(C(F)(F)F)cc3)n2)C(=O)C(C)(C)C)cc1` [Compound 89, N-(4-Dimethylamino-phenyl)-2,2-dimethyl-N-{2-[methyl-(4-trifluoromethyl-phenyl)-amino]-thiazol-4-ylmethyl}-propionamide]: the IC50 reads like this: under setting [1], 0.3 µM; under setting [2], 1.1 µM.
The matching figures for `CCN(CC)c1ccc(CN(C(=O)C(C)(C)CC)c2ccc(N(C)C)cc2)cc1` [Compound 90, N-(4-Diethylaminobenzyl)-N-(4-dimethylamino-phenyl)-2,2-dimethyl-butyramide]: 0.8 µM and 2.2 µM.
